Experimental data reported in patent publication US6706663B2, “Herbicidal 3-heterocyclic substituted benzisothiazole and benzisoxazole compounds” (Wyeth, priority 2000, dated 2004).

How the values were obtained:
CYPIR (Cyperus iria) = experiment: Flooded paddy, preemergence weed control; format: in vivo; settings: rate 0.1250 kg/ha, rated 3-4 weeks after treatment, 0-9 rating scale
Protocol: (§1) Results of herbicide evaluation are expressed on a rating scale (0-9). The scale is based upon a visual observation of plant stand, vigor, malformation, size, chlorosis and overall plant appearance as compared with a control.
(§2) Preemergence herbicidal activity under flooded paddy conditions is determined as follows: plant seeds or propagating organs are planted in the top 0.5 cm of silt loam soil in 32 oz. plastic containers with a diameter of 10.5 cm and no drainage holes. Water is added to these containers and maintained at 1.5 to 3 cm above the soil surface for the duration of the experiment. […] The treated containers are placed on greenhouse benches and cared for in accordance with conventional greenhouse procedures.

ORYSAT (Rice, Tebonnet) [1] = experiment: Postemergence herbicidal evaluation; format: in vivo, Oryza sativa, (L.) Tebonnet
Protocol: (§3) In the tests, seedling plants are grown in jiffy flats for about two weeks. […] After spraying, the plants are placed on greenhouse benches and are cared for in accordance with conventional greenhouse procedures. From four to five weeks after treatment, the seedling plants are examined and rated according to the rating system set forth below. Where more than one test is involved for a given compound, the data are averaged.
as §1

[2] = test system: CASOB (Cassia obtusifolia); experiment: Preemergence herbicidal evaluation; format: in vivo, L.; settings: preemergence, rated 4-5 weeks after treatment
Text: as §1
(§4) The preemergence herbicidal activity of the test compounds of the present invention is exemplified by the following tests in which the seeds of a variety of monocotyledonous and dicotyledonous plants are separately mixed with potting soil and planted on top of approximately one inch of soil in separate pint cups. […] The treated cups are then placed on greenhouse benches, watered and cared for in accordance with conventional greenhouse procedures. From four to five weeks after treatment, the tests are terminated and each cup is examined and rated according to the rating system provided in Example 87. The plant species used and the compounds evaluated are the same as those shown in Example 87.

[3] = test system: AMBEL (Ambrosia artemisifolia); experiment: Preemergence herbicidal evaluation; format: in vivo, L.; settings: preemergence, rated 4-5 weeks after treatment
Text: as §1, §4

[4] = test system: CHEAL (Chenopodium album); experiment: Preemergence herbicidal evaluation; format: in vivo, L.; settings: preemergence, rated 4-5 weeks after treatment
Text: as §1, §4

ORYSAT (Rice, Tebonnet) [5] = experiment: Flooded paddy, post-transplant rice tolerance; format: in vivo, Oryza sativa, (L.) Tebonnet; settings: flooded paddy, post-transplant rice; rate 0.1250 kg/ha; rated 3-4 weeks after treatment; 0-9 rating scale
Protocol: as §1
The tolerance of transplanted rice to post-transplanted herbicide application is determined as follows: two ten-day-old rice seedlings (cv. Tebonnet) are transplanted into silt loam soil in 32 oz. plastic containers with a diameter of 10.5 cm and no drainage holes. After transplanting, the containers are flooded and the water level is maintained at 1.5 to 3 cm above the soil surface. […] The treated containers are placed on greenhouse benches, watered such that the water level is maintained as stated above, and cared for in accordance with conventional greenhouse procedures.

ORYSAT (Rice, Tebonnet) [6] = experiment: Preemergence herbicidal evaluation; format: in vivo, Oryza sativa, (L.) Tebonnet; settings: preemergence, rated 4-5 weeks after treatment
Text: as §1, §4

[7] = test system: SAGPY (Sagittaria pygmaea); experiment: Flooded paddy, preemergence weed control; format: in vivo, L.; settings: rate 0.1250 kg/ha, rated 3-4 weeks after treatment, 0-9 rating scale
Protocol: as §1, §2

[8] = test system: TRZAWR (Wheat, Winter, cv Riband); experiment: Postemergence herbicidal evaluation; format: in vivo, Triticum aestivum
Protocol: as §3, §1

SETVI (Setaria viridis) [9] = experiment: Postemergence herbicidal evaluation; format: in vivo, (L.) Beau
Protocol: In the tests, seedling plants are grown in jiffy flats for about two weeks. The test compounds are dispersed in 50/50 acetone/water mixtures containing 0.5% TWEEN® 20, a polyoxyethylene sorbitan monolaurate surfactant of Atlas Chemical Industries, in sufficient quantities to provide the equivalent of about 0.0040 kg to 1.000 kg per hectare of active compound when applied to the plants through a spray nozzle operating at 40 psi for a predetermined time. After spraying, the plants are placed on greenhouse benches and are cared for in accordance with conventional greenhouse procedures. From four to five weeks after treatment, the seedling plants are examined and rated according to the rating system set forth below. Where more than one test is involved for a given compound, the data are averaged.
as §1

[10] = test system: GLXMAW (Soybean, Williams); experiment: Preemergence herbicidal evaluation; format: in vivo, Glycine max, (L.) Merr. cv Williams; settings: preemergence, rated 4-5 weeks after treatment
Text: as §1, §4

[11] = test system: ECHCG (Echinochloa crus-galli); experiment: Preemergence herbicidal evaluation; format: in vivo, (L.) Beau; settings: preemergence, rated 4-5 weeks after treatment
Text: as §1, §4

SETVI (Setaria viridis) [12] = experiment: Preemergence herbicidal evaluation; format: in vivo, (L.) Beau; settings: preemergence, rated 4-5 weeks after treatment
Text: as §1, §4

[13] = test system: CYPSE (Cyperus serotinus); experiment: Flooded paddy, preemergence weed control; format: in vivo, Rottb.; settings: rate 0.1250 kg/ha, rated 3-4 weeks after treatment, 0-9 rating scale
Protocol: as §1
Preemergence herbicidal activity under flooded paddy conditions is determined as follows: plant seeds or propagating organs are planted in the top 0.5 cm of silt loam soil in 32 oz. plastic containers with a diameter of 10.5 cm and no drainage holes. Water is added to these containers and maintained at 1.5 to 3 cm above the soil surface for the duration of the experiment. The test compounds are applied as aqueous/acetone mixtures 50/50 v/v pipetted directly into the flood water to give the equivalent of about 0.0080 to 0.1250 kg/ha of active ingredient. The treated containers are placed on greenhouse benches and cared for in accordance with conventional greenhouse procedures. Three to four weeks after treatment, the test is terminated and each container is examined and herbicidal effect rated according to the rating system provided in Example 87.

[14] = test system: ABUTH (Abutilon theophrasti); experiment: Preemergence herbicidal evaluation; format: in vivo, Medic.; settings: preemergence, rated 4-5 weeks after treatment
Text: as §1, §4

ZEAMX (Corn, Field) [15] = experiment: Postemergence herbicidal evaluation; format: in vivo, Zea mays, L.
Protocol: as §3, §1

[16] = test system: MOOVA (Monochoria vaginalis); experiment: Flooded paddy, preemergence weed control; format: in vivo, Presl.; settings: rate 0.1250 kg/ha, rated 3-4 weeks after treatment, 0-9 rating scale
Protocol: as §1, §2

GALAP (Galium aparine) [17] = experiment: Preemergence herbicidal evaluation; format: in vivo; settings: preemergence, rated 4-5 weeks after treatment
Text: as §1, §4

[18] = test system: ABUTH (Abutilon theophrasti); experiment: Postemergence herbicidal evaluation; format: in vivo, Medic.
Protocol: as §3, §1

GALAP (Galium aparine) [19] = experiment: Postemergence herbicidal evaluation; format: in vivo
Protocol: as §3, §1

[20] = test system: IPOHE (Ipomoea hederacea); experiment: Preemergence herbicidal evaluation; format: in vivo, (L.) Jacq.; settings: preemergence, rated 4-5 weeks after treatment
Text: as §1, §4

[21] = test system: CASOB (Cassia obtusifolia); experiment: Postemergence herbicidal evaluation; format: in vivo, L.
Protocol: as §3, §1

[22] = test system: AMBEL (Ambrosia artemisifolia); experiment: Postemergence herbicidal evaluation; format: in vivo, L.
Protocol: as §3, §1

[23] = test system: CHEAL (Chenopodium album); experiment: Postemergence herbicidal evaluation; format: in vivo, L.
Protocol: as §3, §1

[24] = test system: GLXMAW (Soybean, Williams); experiment: Postemergence herbicidal evaluation; format: in vivo, Glycine max, (L.) Merr. cv Williams
Protocol: as §3, §1

ZEAMX (Corn, Field) [25] = experiment: Preemergence herbicidal evaluation; format: in vivo, Zea mays, L.; settings: preemergence, rated 4-5 weeks after treatment
Text: as §1, §4

[26] = test system: ECHCG (Echinochloa crus-galli); experiment: Postemergence herbicidal evaluation; format: in vivo, (L.) Beau
Protocol: as §3, §1

[27] = test system: TRZAWR (Wheat, Winter, cv Riband); experiment: Preemergence herbicidal evaluation; format: in vivo, Triticum aestivum; settings: preemergence, rated 4-5 weeks after treatment
Text: as §1, §4

[28] = test system: IPOHE (Ipomoea hederacea); experiment: Postemergence herbicidal evaluation; format: in vivo, (L.) Jacq.
Protocol: as §3, §1

[29] = test system: ECHORC (Echinochloa oryzoides); experiment: Flooded paddy, preemergence weed control; format: in vivo, Echinochloa oryzoides (Ard.) Fritsch.; settings: rate 0.1250 kg/ha, rated 3-4 weeks after treatment, 0-9 rating scale
Protocol: as §1, §2

## Cn1c(C(F)(F)F)cc(=O)n(-c2cc3c(-c4ccccn4)nsc3cc2F)c1=O [Compound 25, 3-[6-fluoro-3-(2-pyridyl)-1,2-benzisothiazol-5-yl]-1-methyl-6-(trifluoromethyl)uracil]
CYPIR (Cyperus iria)
  herbicidal rating, CYPIR: 9.0
ORYSAT (Rice, Tebonnet) [1]; rate 0.0620 kg/ha
  Postemergence herbicidal rating, ORYSAT: 3.0
[2]; Rate 0.1250 kg/ha
  CASOB preemergence herbicidal rating: 9.0
[3]; Rate 0.1250 kg/ha
  AMBEL preemergence herbicidal rating: 9.0
[4]; Rate 0.1250 kg/ha
  CHEAL preemergence herbicidal rating: 9.0
ORYSAT (Rice, Tebonnet) [5]
  herbicidal rating, ORYSAT (rice tolerance): 9.0
ORYSAT (Rice, Tebonnet) [6]; Rate 0.1250 kg/ha
  ORYSAT preemergence herbicidal rating: 9.0
[7]
  herbicidal rating, SAGPY: 9.0
[8]; rate 0.0620 kg/ha
  Postemergence herbicidal rating, TRZAWR: 4.5
SETVI (Setaria viridis) [9]; rate 0.0620 kg/ha
  Postemergence herbicidal rating, SETVI: 9.0
[10]; Rate 0.1250 kg/ha
  GLXMAW preemergence herbicidal rating: 7.0
[11]; Rate 0.1250 kg/ha
  ECHCG preemergence herbicidal rating: 9.0
SETVI (Setaria viridis) [12]; Rate 0.1250 kg/ha
  SETVI preemergence herbicidal rating: 9.0
[13]
  herbicidal rating, CYPSE: 9.0
[14]; Rate 0.1250 kg/ha
  ABUTH preemergence herbicidal rating: 9.0
ZEAMX (Corn, Field) [15]; rate 0.0620 kg/ha
  Postemergence herbicidal rating, ZEAMX: 7.0
[16]
  herbicidal rating, MOOVA: 9.0
GALAP (Galium aparine) [17]; Rate 0.1250 kg/ha
  GALAP preemergence herbicidal rating: 5.0
[18]; rate 0.0620 kg/ha
  Postemergence herbicidal rating, ABUTH: 9.0
GALAP (Galium aparine) [19]; rate 0.0620 kg/ha
  Postemergence herbicidal rating, GALAP: 4.0
[20]; Rate 0.1250 kg/ha
  IPOHE preemergence herbicidal rating: 9.0
[21]; rate 0.0620 kg/ha
  Postemergence herbicidal rating, CASOB: 9.0
[22]; rate 0.0620 kg/ha
  Postemergence herbicidal rating, AMBEL: 9.0
[23]; rate 0.0620 kg/ha
  Postemergence herbicidal rating, CHEAL: 9.0
[24]; rate 0.0620 kg/ha
  Postemergence herbicidal rating, GLXMAW: 9.0
ZEAMX (Corn, Field) [25]; Rate 0.1250 kg/ha
  ZEAMX preemergence herbicidal rating: 8.0
[26]; rate 0.0620 kg/ha
  Postemergence herbicidal rating, ECHCG: 3.0
[27]; Rate 0.1250 kg/ha
  TRZAWR preemergence herbicidal rating: 9.0
[28]; rate 0.0620 kg/ha
  Postemergence herbicidal rating, IPOHE: 9.0
[29]
  herbicidal rating, ECHORC: 9.0

## Cc1nnc(-c2nsc3ccc(-n4c(=O)cc(C(F)(F)F)n(C)c4=O)cc23)o1 [Compound 16, 1-methyl-3-[3-(5-methyl-1,3,4-oxadiazol-2-yl)-1,2-benzisothiazol-5-yl]-6-(trifluoromethyl)uracil]
CYPIR (Cyperus iria)
  herbicidal rating, CYPIR: 8.5
ORYSAT (Rice, Tebonnet) [1]; rate 0.1250 kg/ha
  Postemergence herbicidal rating, ORYSAT: 3.0
[2]; Rate 0.2500 kg/ha
  CASOB preemergence herbicidal rating: 9.0
[3]; Rate 0.2500 kg/ha
  AMBEL preemergence herbicidal rating: 9.0
[4]; Rate 0.2500 kg/ha
  CHEAL preemergence herbicidal rating: 9.0
ORYSAT (Rice, Tebonnet) [5]
  herbicidal rating, ORYSAT (rice tolerance): 5.5
ORYSAT (Rice, Tebonnet) [6]; Rate 0.2500 kg/ha
  ORYSAT preemergence herbicidal rating: 7.0
[7]
  herbicidal rating, SAGPY: 4.5
[8]; rate 0.1250 kg/ha
  Postemergence herbicidal rating, TRZAWR: 3.0
SETVI (Setaria viridis) [9]; rate 0.1250 kg/ha
  Postemergence herbicidal rating, SETVI: 4.5
[10]; Rate 0.2500 kg/ha
  GLXMAW preemergence herbicidal rating: 7.5
[11]; Rate 0.2500 kg/ha
  ECHCG preemergence herbicidal rating: 9.0
SETVI (Setaria viridis) [12]; Rate 0.2500 kg/ha
  SETVI preemergence herbicidal rating: 9.0
[13]
  herbicidal rating, CYPSE: 6.0
[14]; Rate 0.2500 kg/ha
  ABUTH preemergence herbicidal rating: 9.0
ZEAMX (Corn, Field) [15]; rate 0.1250 kg/ha
  Postemergence herbicidal rating, ZEAMX: 4.3
[16]
  herbicidal rating, MOOVA: 9.0
GALAP (Galium aparine) [17]; Rate 0.2500 kg/ha
  GALAP preemergence herbicidal rating: 7.0
[18]; rate 0.1250 kg/ha
  Postemergence herbicidal rating, ABUTH: 4.5
GALAP (Galium aparine) [19]; rate 0.1250 kg/ha
  Postemergence herbicidal rating, GALAP: 3.0
[20]; Rate 0.2500 kg/ha
  IPOHE preemergence herbicidal rating: 9.0
[21]; rate 0.1250 kg/ha
  Postemergence herbicidal rating, CASOB: 3.5
[22]; rate 0.1250 kg/ha
  Postemergence herbicidal rating, AMBEL: 4.5
[23]; rate 0.1250 kg/ha
  Postemergence herbicidal rating, CHEAL: 3.5
[24]; rate 0.1250 kg/ha
  Postemergence herbicidal rating, GLXMAW: 5.8
ZEAMX (Corn, Field) [25]; Rate 0.2500 kg/ha
  ZEAMX preemergence herbicidal rating: 7.5
[26]; rate 0.1250 kg/ha
  Postemergence herbicidal rating, ECHCG: 1.5
[27]; Rate 0.2500 kg/ha
  TRZAWR preemergence herbicidal rating: 7.0
[28]; rate 0.1250 kg/ha
  Postemergence herbicidal rating, IPOHE: 4.5
[29]
  herbicidal rating, ECHORC: 8.0
